Data as given in US7524646B2 (priority 2001, dated 2009).

What was measured:
Assay type in all cases: cell-based, E. coli
[1] = system: Δilv strain CU505 (wild-type valS); test: Amino acid composition of total protein after growth with Abu, wild-type valS; conditions: WT + Abu (0.2 mM); 24 hours; relative to WT control that lacked Abu
Procedure: (§1) We anticipated that ValRS mutants that misincorporated Cys would also misincorporate Abu. […] Whole cell protein was isolated from strain CU505 grown in the presence of Abu (0.2 mM), in the presence or absence of the valS:T222P allele in the host cell. […] Finally, the valine-rich yeast protein AlaXp (swissprot:P53960) was overexpressed and purified from strains containing the valS:T222P allele grown in the presence of Abu. The protein samples were digested by trypsin and analyzed by mass spectrometry. […] For a given peptide the degree of misincorporation ranged between 9.5% and 18% per Val codon. Sequencing of several Abu-containing peptides confirmed that Abu was specifically misincorporated into positions designated by Val codons.
(§2) Table 2. Incorporation of Abu into cells bearing wild-type and T222P mutant alleles of valS. Cultures of the Δilv strain CU505 (19) and the isogenic strain β5498 carrying the valS:T222P allele were grown overnight in minimal medium (27) with Ile-Leu (0.3 mM) and limiting valine (0.04 mM Ile-Val), diluted (1/2), and adjusted with Ile-Val (0.02 mM) with or without Abu (0.2 mM). After 24 hours of growth, total protein was extracted as follows. Cells were first harvested by centrifugation and washed in cold 10% trichloroacetic acid (TCA, 1/2 of the culture volume). Cells were then re-centrifuged at 4000×g for 10 min, resuspended in cold 10% TCA (1/10 of the culture volume) and centrifuged again. The washed cells were resuspended in […], heated at 95° C. for 30 minutes and centrifuged (4000×g, 10 min). The precipitate was washed three times with cold acetone and dissolved in 50 mM NH4HCO3. Proteins were hydrolyzed in 6 N HCl-0.2% phenol at 110C. for 20 h in sealed tubes. Norleucine was added as an internal standard. Aliquots of the hydrolysates were analyzed on a Beckman 6300 Amino Acid Analyzer. Amino acids were quantified by appropriate standards and values are presented relative the wild-type (WT) control that lacked Abu.

[2] = system: strain β5498 carrying the valS:T222P allele; test: Amino acid composition of total protein after growth with Abu, valS:T222P; conditions: for valine in cellular protein replaced by Abu: whole cell protein, strain harboring the mutant allele, Abu 0.2 mM
Procedure: as §1, §2

[3] = system: strain β5456 (valS:T222P); test: Growth on Abu gradient plates, valS:T222P strain; conditions: gradient plate, 50 μl 0.1 M, 2 days at 37° C.
Procedure: FIG. 1C: Photographs showing the results of growth of a strain carrying the valS:T222P allele in the presence of L-threonine or Abu. Minimal medium plates supplemented with thymidine (0.3 mM) were pretreated with amino acid solutions by streaking either with Thr (50 μl (0.2 M)) or Abu (50 μl (0.1 M)) vertically along the diameter of the plate to create an amino acid gradient. Mutant (β5456) and wild-type (β5419 (thyA::erm+ ΔnrdD::kan+ pTS13 (bla+ thyA: 146GUA)) strains were then streaked horizontally across the plates and incubated for 2 days at 37° C.
as §1

[4] = system: valine auxotroph CU505; test: Growth of valine auxotroph with limiting valine and increasing Abu, wild-type valS; conditions: up to 1 mM Abu; OD 600 nm, 24 h, 30° C.
Procedure: (§3) FIG. 3. A graph showing the results of growth of the valine auxotroph CU505 in the presence of a limiting supply of valine and increasing concentrations of Abu. Overnight cultures of Δilv auxotrophs containing the WT valS (É) or the mutant valS:T222P allele (J) and grown in MS glucose medium with limiting valine (0.04 mM Ile-Val. 0.3 mM Ile-Leu) were diluted 1/1, the Val concentration was adjusted to 0.02 mM and the biomass was determined by measuring the optical density at 600 nm after 24 h of growth at 30° C.
(§4) Abu misincorporation. The valine auxotroph CU505 (33) was grown in the presence of a limiting supply of valine and increasing concentrations of Abu (FIG. 3). […] In contrast, when the valST222P allele was introduced into the chromosome (strain β5498), the yield of cells was diminished in the absence of Abu but increased up to 30% when Abu (0.2 mM) was added.

[5] = system: strain β5498 (valS:T222P allele); test: Growth of valine auxotroph with limiting valine and Abu, valS:T222P; conditions: Abu 0.2 mM; limiting valine 0.02 mM; OD 600 nm, 24 h, 30° C.
Procedure: as §3, §4

[6] = T222P + Abu (0.2 mM), 24 hours, relative to WT control that lacked Abu

CCC(N)C(=O)O (stereo not drawn) [Abu, α-aminobutyric acid]
Abu incorporated into total protein [1]: 0.0 | Ala incorporated into total protein [1]: 1.0 | Ile incorporated into total protein [1]: 1.0 | Val + Abu incorporated into total protein [1]: 1.0 | Val incorporated into total protein [1]: 1.0 | Abu incorporated into total protein [2, 6]: 0.24 | Ala incorporated into total protein [2, 6]: 0.92 | Ile incorporated into total protein [2, 6]: 1.0 | Val + Abu incorporated into total protein [2, 6]: 0.97 | Val incorporated into total protein [2, 6]: 0.73 | valine in cellular protein replaced by Abu [2]: 24% | valine in cellular protein replaced by Abu ([2]; listed as aminobutyrate): Over 20% | sensitivity of growth to Abu [3]: sensitive | biomass of cells relative to the valine concentration [4]: did not change | increase of yield of cells [5]: up to 30%
